The source of these data is patent US20170298055A1, “sGC STIMULATORS” (IRONWOOD PHARMACEUTICALS, INC., priority 2014, published 2017).

One test has as its target T1, sGC enzyme (Homo sapiens, UniProt Q02108+Q02153).
T1 construct: host or cells: HEK293 cells stably expressing GloSensor 40F cGMP biosensor
T1 sequence (Q02153 1-619): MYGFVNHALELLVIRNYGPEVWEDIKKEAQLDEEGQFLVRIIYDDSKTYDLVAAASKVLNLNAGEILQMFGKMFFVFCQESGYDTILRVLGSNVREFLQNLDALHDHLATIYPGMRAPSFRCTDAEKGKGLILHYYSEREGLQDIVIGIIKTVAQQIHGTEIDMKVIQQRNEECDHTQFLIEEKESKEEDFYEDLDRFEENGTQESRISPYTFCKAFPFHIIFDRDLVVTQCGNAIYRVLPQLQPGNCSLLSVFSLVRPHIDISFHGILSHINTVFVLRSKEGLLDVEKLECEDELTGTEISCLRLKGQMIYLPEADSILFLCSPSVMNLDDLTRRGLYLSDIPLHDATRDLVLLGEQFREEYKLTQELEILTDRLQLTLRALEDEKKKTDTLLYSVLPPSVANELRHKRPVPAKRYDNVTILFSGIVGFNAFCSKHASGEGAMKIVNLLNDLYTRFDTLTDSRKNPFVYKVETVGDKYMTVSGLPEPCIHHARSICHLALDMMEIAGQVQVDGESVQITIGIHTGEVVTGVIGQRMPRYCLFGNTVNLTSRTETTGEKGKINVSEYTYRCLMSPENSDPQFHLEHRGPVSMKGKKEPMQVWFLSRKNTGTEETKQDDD
T1 sequence (Q02108 1-690): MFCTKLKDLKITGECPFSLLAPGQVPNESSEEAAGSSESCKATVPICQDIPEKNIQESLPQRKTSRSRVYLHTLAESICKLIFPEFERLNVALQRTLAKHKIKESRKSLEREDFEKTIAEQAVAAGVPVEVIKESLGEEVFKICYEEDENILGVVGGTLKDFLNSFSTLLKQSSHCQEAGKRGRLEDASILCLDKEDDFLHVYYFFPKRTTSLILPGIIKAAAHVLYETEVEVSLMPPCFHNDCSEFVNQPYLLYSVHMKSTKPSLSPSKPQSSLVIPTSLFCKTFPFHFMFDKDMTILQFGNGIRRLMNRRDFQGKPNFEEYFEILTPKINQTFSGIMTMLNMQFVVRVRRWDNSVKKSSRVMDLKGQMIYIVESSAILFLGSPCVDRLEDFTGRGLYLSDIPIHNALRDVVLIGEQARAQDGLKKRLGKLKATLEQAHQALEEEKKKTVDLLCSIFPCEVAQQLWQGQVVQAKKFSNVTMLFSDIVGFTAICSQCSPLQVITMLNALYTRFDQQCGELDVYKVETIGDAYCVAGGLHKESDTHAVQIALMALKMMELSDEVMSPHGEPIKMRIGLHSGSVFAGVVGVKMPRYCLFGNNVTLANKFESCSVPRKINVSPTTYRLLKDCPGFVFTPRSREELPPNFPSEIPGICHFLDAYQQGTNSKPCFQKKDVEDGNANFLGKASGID
The test is described as follows: cGMP GloSensor cell-based assay, 384-well format (Example 2C). The note with it: read-out: sGC_HEK_GloSensor EC50/IC50 Abs (Norm) (nM) Binned. The text has this: Human embryonic kidney cells (HEK293) cells expressing GloSensor™ 40F cGMP (Part No: CS182801, Promega) were used to evaluate the activity of test compounds. The luminescent biosensors (engineered luciferase) that were incorporated into these cells detect cGMP formed by the compounds stimulating the sGC enzyme and emit luminescence.
cGMP GloSensor cells were maintained in Dulbecco's Modification of Eagle's Medium (DMEM) supplemented with fetal bovine serum (FBS) (10% final) and hygromycine (200 ug/ml). The day before assay, cells were plated in DMEM with 10% FBS in a 50 μL volume at a density of 1.5×10^4 cells/well in a poly-D-lysine coated 384-well flat white-bottom plate (Corning Cat No 35661). Cells were incubated overnight at 37° C. in a humidified chamber with 5% CO2. The next day, medium was removed and cells were replaced with 40 ul/well of GloSensor™, 2 mM (Promega Cat No E1291). Cells were treated for 90 minutes at 25° C. to allow the substrate to equilibrate in the cells. Test compounds and Diethylenetriamine NONOate (DETA-NONOate) was diluted to 3 mM (20×) in serum-free CO2 independent medium and serally diluted at 4× dilutions to create 5× dose curve from which 10 ul was added to the wells (x μM concentration for test compound solution and 10 μM concentration for DETA-NONOate solution; wherein x is one of the following final concentrations).
For the kinetics studies, luminescense was measured right away for 0.2 sec per well with Envision (Perkin Elmer model No). For endpoint SAR screening, data were collected after 55 min incubation at room temperature.
Data analysis was carried out as indicated above in Example 2C.
With `OCCSc1nc(-c2cc(-c3ccon3)n(Cc3ccccc3F)n2)ncc1F` [Compound I-34], the EC50 is more than 1000 nM.
On the same count and under the same terms, for `OCCSc1cnc(-c2cc(-c3ccon3)n(Cc3ccccc3F)n2)nc1SCCO` [Compound I-35] the value was more than 1000 nM; for `Fc1ccccc1Cn1nc(-c2ncc(F)c(Sc3ccccc3)n2)cc1-c1ccon1` [Compound I-37], 100 to 1000 nM.
Still for that read-out and setting: for `O=S(=O)(c1ccccc1)c1nc(-c2cc(-c3ccon3)n(Cc3ccccc3F)n2)ncc1F` [Compound I-38] the value was not above 100 nM.

Another test has as its system lambs with acute pulmonary hypertension.
Test: not given
The note with it: after intravenous ODQ; cited from earlier work.
`O=C(O)CCCCN(CCc1ccccc1OCc1ccc(CCc2ccccc2)cc1)Cc1ccc(C(=O)O)cc1` [BAY 58-2667]: the “pulmonary vasodilation and transpulmonary cGMP release after ODQ treatment” value is “greatly enhanced”.

Still in this test, the particulars now being: combination with inhaled nitric oxide; cited from earlier work.
As for `Nc1nc(-c2nn(Cc3ccccc3F)c3ncccc23)nc(N)c1N1CCOCC1` [BAY 41-8543], the “pulmonary vasodilation induced by iNO after inhaling microparticles” value was “augmented”.

The same test, now with this note: inhaled microparticles, awake lambs, U-46619 infusion; cited from earlier work.
Regarding `Nc1nc(-c2nn(Cc3ccccc3F)c3ncccc23)ncc1C1CC1` [BAY 41-2272], the “effect on mean arterial pressure” value is on record as “without significant effect on mean arterial pressure”, the pulmonary vasodilation result was “dose dependent pulmonary vasodilation” and the “transpulmonary cGMP release” value is on record as “increased transpulmonary cGMP release”.
As for `Nc1nc(-c2nn(Cc3ccccc3F)c3ncccc23)nc(N)c1N1CCOCC1` [BAY 41-8543], the “effect on mean arterial pressure” value is on record as “without significant effect on mean arterial pressure”, the pulmonary vasodilation result is listed as “dose dependent pulmonary vasodilation” and the “transpulmonary cGMP release” value is listed as “increased transpulmonary cGMP release”.
Regarding `O=C(O)CCCCN(CCc1ccccc1OCc1ccc(CCc2ccccc2)cc1)Cc1ccc(C(=O)O)cc1` [BAY 58-2667], the “effect on mean arterial pressure” value is reported as “without significant effect on mean arterial pressure”, the pulmonary vasodilation entry is given as “dose dependent pulmonary vasodilation” and the “transpulmonary cGMP release” value is on record as “increased transpulmonary cGMP release”.

Staying with this test, now noted: inhaled microparticles, awake lambs; cited from earlier work.
Turning to `Nc1nc(-c2nn(Cc3ccccc3F)c3ncccc23)nc(N)c1N1CCOCC1` [BAY 41-8543], the systemic arterial oxygenation entry is on record as “increased systemic arterial oxygenation”.
Take `O=C(O)CCCCN(CCc1ccccc1OCc1ccc(CCc2ccccc2)cc1)Cc1ccc(C(=O)O)cc1` [BAY 58-2667]: the systemic arterial oxygenation result is on record as “increased systemic arterial oxygenation”.

The next test has as its target T2, human recombinant soluble guanylate cyclase enzyme α1β1 (Homo sapiens, UniProt Q02108+Q02153).
T2 construct: purchased Enzo Life Sciences ALX-201-177
T2 sequence (Q02153 1-619): T1 sequence (Q02153 1-619)
T2 sequence (Q02108 1-690): T1 sequence (Q02108 1-690)
The test can be described thus: Purified human recombinant sGC α1β1 enzyme assay with DETA-NONOate, cGMP HTRF (Example 5). The test is classed as biochemical. The note with it: 30 uM DETA NONOate, 50% of maximal response of 30 uM Compound Y, read-out: sGC_Enz_HTRF_a1b1 EC50/IC50 Abs (Norm) (nM) Binned. As to the method:
Purified human recombinant soluble guanylate cyclase enzyme α1β1 (h sGC) obtained from Enzo Life Sciences (P/N: ALX-201-177) was used to evaluate the activity of test compounds. The assay reactions contained 0.1 M Tris (pH 8.0), 0.5 mg/mL BSA, 2 mM DTT, 4 mM MgCl2, 30 uM DETA NONOate (Enzo Life Science P/N: ALX-430-014), and 12.5 ng/ml human soluble guanylate cyclase enzyme. […] Guanosine 5′-triphosphate (Sigma-Aldrich P/N: G8877) was added to a final concentration of 300 μM and enzyme reactions were incubated (100 μL, 384-well plate format) at 37° C. for 20 minutes. The controls contained 3% DMSO (low control), or 30 uM of Compound Y (high control). After the 20 minute incubation, the reaction was stopped with the addition of 100 μL of ice cold 20% acetic acid.
cGMP concentrations in all samples were determined using the cGMP HTRF (Cisbio P/N: 62GM2PEC) assay per manufacturer's instructions. A cGMP standard curve was fit using a 4-parameter fit (log(inhibitor) vs. response variable slope) using GraphPad Prism Software v.6. Samples were diluted appropriately to ensure that values fell within the linear range of the standard curve.
Data were fit using a 4-parameter fit (log(agonist) vs. response variable slope) using GraphPad Prism Software v.6.
A general note: In TR-FRET formats the signal depends on donor and acceptor labels being close together.
With `O=C(O)COc1nc(-c2cc(-c3ccon3)n(Cc3ccccc3F)n2)ncc1F` [Compound I-6], the EC50 was not below 5000 nM.

The target in a further test is T3, soluble guanylate cyclase (sGC) (Homo sapiens, UniProt Q02108+Q02153).
T3 construct: endogenously expressing soluble guanylate cyclase (sGC); endogenous in cells; host or cells: HEK293
T3 sequence (Q02153 1-619): T1 sequence (Q02153 1-619)
T3 sequence (Q02108 1-690): T1 sequence (Q02108 1-690)
The test can be described thus: sGC-HEK-cGMP assay, LC/MS detection, with SNP incubation (Example 2A). It is filed as cell-based. The note with it: HEK293 cells, in the presence of 10 μM SNP; constrained fit; read-out: sGC_HEK_LCMS cEC50 (nM) Binned (constrained). As to the method:
Human embryonic kidney cells (HEK293), endogenously expressing soluble guanylate cyclase (sGC), were used to evaluate the activity of test compounds. Compounds stimulating the sGC receptor should cause an increase in the intracellular concentration of cGMP. HEK 293 cells were seeded in Dulbecco's Modification of Eagle's Medium supplemented with fetal bovine serum (10% final) and L-glutamine (2 mM final) in a 200 μL volume at a density of 1×10^5 cells/well in a poly-D-lysine coated 96 well flat bottom plate and grown overnight at 37° C. Medium was aspirated and cells were washed with 1× Hank's Buffered Saline Salt Solution (200 μL). Cells were then incubated for 15 minutes at 37° C. with 0.5 mM 3-isobutyl-1-methylxanthine (200 μL). Test article and sodium nitroprusside were then added to the assay mixture (2 μL each) and incubated at 37° C. for 10 minutes. After the 10 minute incubation, the assay mixture was aspirated and 0.1M HCl (200 μL) was added to the cells. The plate was incubated at 4° C. for 30 minutes in the 0.1M HCl to stop the reaction and lysed the cells. The plates were then centrifuged at 1,200 g for 5 minutes at room temperature. Supernatants were collected and transferred to a new flat bottom 96 well plate for analysis. Vehicle controls were carried out using DMSO (1%). A known sGC stimulator, BAY 41-2272, was used as the positive control. Samples were diluted with an equal volume of 1 M Ammonium Acetate (pH 7) to neutralize samples for better chromatography. A 2× cGMP standard curve was prepared in 0.1 M HCl and then diluted with an equal volume of 1 M Ammonium Acetate, with the following final concentrations in nM: 1024, 512, 256, 128, 64, 32, 16, 8, 4, 2, 1. cGMP concentrations were determined from each sample using the LC/MS conditions (Table 2 below) and calculated standard curve. EC50 values were calculated from concentration-response curves generated with GraphPad Prism Software.
In the case of `Fc1ccccc1Cn1nc(-c2ncc(F)c(OC3CCNC3)n2)cc1-c1ccon1` (centres unmarked) [Compound I-5], the EC50 was 1000 to 5000 nM.
As for `O=C(COc1nc(-c2cc(-c3ccon3)n(Cc3ccccc3F)n2)ncc1F)N1CCOCC1` [Compound I-11], the EC50 lay in the range of 1000 to 5000 nM.
The same measure, in the same setting: for `CS(=O)(=O)CCCOc1nc(-c2cc(-c3ccon3)n(Cc3ccccc3F)n2)ncc1F` [Compound I-18] the value was 1000 to 5000 nM.

The same test, now with this note: HEK293 cells, in the presence of 10 μM SNP; top of concentration-response curve not fitted to 100%; read-out: sGC_HEK_LCMS uEC50 (nM) Binned (unconstrained).
`CC(C)(C)OC(=O)N1CCCC1COc1nc(-c2cc(-c3ccon3)n(Cc3ccccc3F)n2)ncc1F` (centres unmarked) [Compound I-4]: the EC50 fell in the range of 1000 to 5000 nM.
Same read-out and setting: then `COC(=O)COc1nc(-c2cc(-c3ccon3)n(Cc3ccccc3F)n2)ncc1F` [Compound I-7], with 1000 to 5000 nM.
`COC(=O)C1(Oc2nc(-c3cc(-c4ccon4)n(Cc4ccccc4F)n3)ncc2F)CC1` [Compound I-8]: the EC50 is 1000 to 5000 nM.
As to `Fc1ccccc1Cn1nc(-c2ncc(F)c(OC3CCNCC3)n2)cc1-c1ccon1` [Compound I-13], the EC50 was not below 5000 nM.
On the same count and under the same terms, then `Fc1ccccc1Cn1nc(-c2ncc(F)c(OC3CNC3)n2)cc1-c1ccon1` [Compound I-14], with 1000 to 5000 nM; and `Fc1ccccc1Cn1nc(-c2ncc(F)c(OC3CCOC3)n2)cc1-c1ccon1` (centres unmarked) [Compound I-15], with 100 to 1000 nM; and `Fc1ccccc1Cn1nc(-c2ncc(F)c(OCC(F)(F)c3ccccn3)n2)cc1-c1ccon1` [Compound I-17], with 100 to 1000 nM.
As to `CS(=O)(=O)N1CCCC(Oc2nc(-c3cc(-c4ccon4)n(Cc4ccccc4F)n3)ncc2F)C1` (centres unmarked) [Compound I-21], the EC50 was 1000 to 5000 nM.
Regarding `COC(=O)c1ccccc1C#Cc1nc(-c2cc(-c3ccon3)n(Cc3ccccc3F)n2)ncc1F` [Compound I-23], the EC50 was 1000 to 5000 nM.
Same read-out and setting: for `O=C1O/C(=C\c2nc(-c3cc(-c4ccon4)n(Cc4ccccc4F)n3)ncc2F)c2ccccc21` [Compound I-26] the value was 1000 to 5000 nM; for `O=C(O)c1ccccc1C(=O)Cc1nc(-c2cc(-c3ccon3)n(Cc3ccccc3F)n2)ncc1F` [Compound I-27], 1000 to 5000 nM.
